The source of these data is patent publication US8188080B2 (Sanford-Burnham Medical Research Institute, priority 2007, dated 2012).

The target of one assay is T1, MKP-1 (Homo sapiens, UniProt P28562).
T1 sequence (P28562 1-367): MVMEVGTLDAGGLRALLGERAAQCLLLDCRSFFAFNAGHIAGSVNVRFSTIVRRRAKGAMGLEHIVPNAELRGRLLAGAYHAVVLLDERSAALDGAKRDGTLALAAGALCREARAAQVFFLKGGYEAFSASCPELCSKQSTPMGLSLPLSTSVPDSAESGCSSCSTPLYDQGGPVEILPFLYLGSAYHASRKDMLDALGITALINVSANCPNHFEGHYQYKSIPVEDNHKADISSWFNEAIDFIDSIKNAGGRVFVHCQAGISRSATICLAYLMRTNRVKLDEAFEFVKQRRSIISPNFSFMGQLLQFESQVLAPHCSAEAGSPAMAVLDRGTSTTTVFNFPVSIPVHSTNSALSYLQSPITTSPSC
As to the kind of experiment: PTP-catalyzed hydrolysis of DiFMUP, IC50 determination (MKP-1). The format is biochemical. The protocol:
The PTP-catalyzed hydrolysis of 6,8-difluoro-4-methylumbelliferyl phosphate (DiFMUP) in the presence of the test compound is assayed at 30° C. in a 60 μL 96 well format reaction system in 0.15 M Bis-Tris, pH 6.0 assay buffer having an ionic strength of 150 mM (adjusted with NaCl) and containing 1 mM dithiotreitol and 5% DMSO. […] The nonenzymatic hydrolysis of the substrate was corrected by measuring the control without addition of enzyme. The IC50 value was determined by plotting the relative activity versus inhibitor concentrations and fitting to Equation 1 using the software GraphPad Prism™ (GraphPad Software, Inc.).
(§1) [formula] In this case, Vi, is the reaction velocity when the inhibitor concentration is [I], V0 is the reaction velocity with no inhibitor and IC50=Ki+Ki[S]/Km.

Another assay deals with T2, PTP1B (Homo sapiens, UniProt P18031).
T2 sequence (P18031 1-435): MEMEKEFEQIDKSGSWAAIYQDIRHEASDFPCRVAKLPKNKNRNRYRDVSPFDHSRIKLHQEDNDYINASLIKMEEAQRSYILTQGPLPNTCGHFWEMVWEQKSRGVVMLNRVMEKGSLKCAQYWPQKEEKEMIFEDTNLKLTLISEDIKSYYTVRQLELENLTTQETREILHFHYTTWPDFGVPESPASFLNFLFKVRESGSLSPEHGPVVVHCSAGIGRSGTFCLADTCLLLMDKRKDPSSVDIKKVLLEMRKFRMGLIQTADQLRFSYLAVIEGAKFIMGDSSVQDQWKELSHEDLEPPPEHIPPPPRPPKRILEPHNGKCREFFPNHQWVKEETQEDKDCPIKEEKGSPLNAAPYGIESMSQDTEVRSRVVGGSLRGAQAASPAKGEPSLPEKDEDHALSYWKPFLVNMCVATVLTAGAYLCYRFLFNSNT
As to the kind of experiment: PTP-catalyzed hydrolysis of DiFMUP, IC50 determination (PTP1B). The format is biochemical. As for the experimental part:
The PTP-catalyzed hydrolysis of 6,8-difluoro-4-methylumbelliferyl phosphate (DiFMUP) in the presence of the test compound is assayed at 30° C. in a 60 μL 96 well format reaction system in 0.15 M Bis-Tris, pH 6.0 assay buffer having an ionic strength of 150 mM (adjusted with NaCl) and containing 1 mM dithiotreitol and 5% DMSO. At various concentrations of the compound, the initial rate at fixed DiFMUP concentration (equal to the corresponding Km value for each PTP) was determined using a FLx800 micro plate reader (Bio-Tek Instruments, Inc.), an excitation wave length of 360 nm and measuring the emission of the fluorescent reaction product 6,8-difluoro-7-hydroxy-4-methylcoumarin (DiFMU) at 460 nm. The nonenzymatic hydrolysis of the substrate was corrected by measuring the control without addition of enzyme. The IC50 value was determined by plotting the relative activity versus inhibitor concentrations and fitting to Equation 1 using the software GraphPad Prism™ (GraphPad Software, Inc.).
as §1

Setting [1] is: Table II, DiFMUP at Km, pH 6.0, 30° C.

SMILES strings stand for the structures. Like-named read-outs stand apart in the source and are kept apart here.

The IC50 is the midpoint of a concentration-inhibition curve. Higher therefore signals lower potency. For `O=C1/C(=C/c2cn(-c3ccccc3)nc2-c2ccc(OCc3ccccc3)cc2)SC(=S)N1CCS(=O)(=O)O` [Compound 9], the IC50 against MKP-1 (setting [1]) was found to be 779 nM; on PTP1B, 1750 nM.

`O=C1/C(=C/c2cn(-c3ccccc3)nc2-c2ccc(OCc3ccc(Cl)cc3)cc2)SC(=S)N1CCS(=O)(=O)O` [Compound 10, (Z)-2-[5-({3-[4-(4-chlorobenzyloxy)phenyl]-1-phenyl-1H-pyrazol-4-yl}methylene)-4-oxo-2-thioxothiazolidin-3-yl]ethane sulfonic acid]: the IC50 on MKP-1 (setting [1]) worked out at 457 nM; at PTP1B (setting [1]), 456 nM.

Take `O=C1/C(=C/c2cn(-c3ccccc3)nc2-c2ccc(S(=O)(=O)N3CCOCC3)cc2)SC(=S)N1CCS(=O)(=O)O` [Compound 14]: the IC50 against MKP-1 was 474 nM; on PTP1B, 592 nM.
